Assay results reported in ChEMBL document CHEMBL3885861, “Open TG-GATES”.

Organism: Rattus norvegicus
Assay: Open TG-GATES - Regimen: Daily Repeat
Assay type: toxicity, organism-based, Sprague-Dawley
Set-up: regimen Daily Repeat, gender Male, age 6 weeks
Settings: in vivo, iv, 0 mg/kg, route intravenous injection, dose level Control; for APTT / Bas / Eos / Fbg / Hb / Ht / Lym / MCH / MCHC / MCV / Mono / Neu / PT / Plat / RBC / Ret / WBC: tissue Blood; for KIDNEY_L / KIDNEY_R / KIDNEY_TOTAL: tissue Kidney; for LIVER: tissue Liver; for A/G / ALP / ALT / AST / BUN / CRE / Ca / Cl / DBIL / GLC / IP / K / LDH / Na / PL / RALB / TBIL / TC / TG / TP / gamma-GTP: tissue Plasma

NCCBr [BROMOETHANAMINE]
TERMINAL_BW (72 h, time 3 day): 229.6 g | APTT (72 h, time 3 day): 23.7 s | Bas (72 h, time 3 day): 0% | Eos (72 h, time 3 day): 1% | Fbg (72 h, time 3 day): 290.6 mg/dL | Hb (72 h, time 3 day): 13.5 g/dL | Ht (72 h, time 3 day): 39.3% | Lym (72 h, time 3 day): 82.2% | MCH (72 h, time 3 day): 21 pg | MCHC (72 h, time 3 day): 34.4% | MCV (72 h, time 3 day): 61.2 fL | Mono (72 h, time 3 day): 2% | Neu (72 h, time 3 day): 13.6% | PT (72 h, time 3 day): 16.3 s | Plat (72 h, time 3 day): 122.8 x10_4/uL | RBC (72 h, time 3 day): 641.2 x10_4/ul | Ret (72 h, time 3 day): 4.8% | WBC (72 h, time 3 day): 116.1 x10_2/uL | KIDNEY_L (72 h, time 3 day): 1 g | KIDNEY_R (72 h, time 3 day): 1 g | KIDNEY_TOTAL (72 h, time 3 day): 2 g | LIVER (72 h, time 3 day): 10.3 g | A/G (72 h, time 3 day): 1.2 | ALP (72 h, time 3 day): 1818.6 IU/L | ALT (72 h, time 3 day): 45.2 IU/L | AST (72 h, time 3 day): 72.2 IU/L | BUN (72 h, time 3 day): 16 mg/dL | CRE (72 h, time 3 day): 0.2 mg/dL | Ca (72 h, time 3 day): 10.7 mg/dL | Cl (72 h, time 3 day): 106 meq/L | DBIL (72 h, time 3 day): 0 mg/dL | GLC (72 h, time 3 day): 181 mg/dL | IP (72 h, time 3 day): 7.7 mg/dL | K (72 h, time 3 day): 4.7 meq/L | LDH (72 h, time 3 day): 170 IU/L | Na (72 h, time 3 day): 141.4 meq/L | PL (72 h, time 3 day): 132 mg/dL | RALB (72 h, time 3 day): 3 g/dL | TBIL (72 h, time 3 day): 0.006 mg/dL | TC (72 h, time 3 day): 68.4 mg/dL | TG (72 h, time 3 day): 76 mg/dL | TP (72 h, time 3 day): 5.5 g/dL | gamma-GTP (72 h, time 3 day): 1.4 IU/L | TERMINAL_BW ([…], time 7 day): 257 g | TERMINAL_BW ([…], time 14 day): 314.6 g | TERMINAL_BW ([…], time 28 day): 359.9 g | APTT ([…], time 7 day): 23.2 s | Bas ([…], time 7 day): 0% | Eos ([…], time 7 day): 1% | Fbg ([…], time 7 day): 288.8 mg/dL | Hb ([…], time 7 day): 13.7 g/dL | Ht ([…], time 7 day): 39.5% | Lym ([…], time 7 day): 82.8% | MCH ([…], time 7 day): 21 pg | MCHC ([…], time 7 day): 34.6% | MCV ([…], time 7 day): 60.9 fL | Mono ([…], time 7 day): 2.4% | Neu ([…], time 7 day): 13.2% | PT ([…], time 7 day): 15.9 s | Plat ([…], time 7 day): 132.6 x10_4/uL | RBC ([…], time 7 day): 649.4 x10_4/ul | Ret ([…], time 7 day): 4.4% | WBC ([…], time 7 day): 113.7 x10_2/uL | APTT ([…], time 14 day): 23.9 s | Bas ([…], time 14 day): 0% | Eos ([…], time 14 day): 1.2% | Fbg ([…], time 14 day): 301 mg/dL | Hb ([…], time 14 day): 14 g/dL | Ht ([…], time 14 day): 40.1% | Lym ([…], time 14 day): 85% | MCH ([…], time 14 day): 20.6 pg | MCHC ([…], time 14 day): 34.9% | MCV ([…], time 14 day): 59 fL | Mono ([…], time 14 day): 2.2% | Neu ([…], time 14 day): 10.6% | PT ([…], time 14 day): 15.9 s | Plat ([…], time 14 day): 117.9 x10_4/uL | RBC ([…], time 14 day): 680.2 x10_4/ul | Ret ([…], time 14 day): 3.6% | WBC ([…], time 14 day): 89.2 x10_2/uL | APTT ([…], time 28 day): 25.5 s | Bas ([…], time 28 day): 0% | Eos ([…], time 28 day): 1.8% | Fbg ([…], time 28 day): 297 mg/dL | Hb ([…], time 28 day): 15.7 g/dL | Ht ([…], time 28 day): 42.5% | Lym ([…], time 28 day): 84.8% | MCH ([…], time 28 day): 20.6 pg | MCHC ([…], time 28 day): 36.9% | MCV ([…], time 28 day): 55.8 fL | Mono ([…], time 28 day): 2% | Neu ([…], time 28 day): 10.8% | PT ([…], time 28 day): 16.7 s | Plat ([…], time 28 day): 100.6 x10_4/uL | RBC ([…], time 28 day): 762.2 x10_4/ul | Ret ([…], time 28 day): 2.3% | WBC ([…], time 28 day): 126.1 x10_2/uL | KIDNEY_L ([…], time 7 day): 1.1 g | KIDNEY_R ([…], time 7 day): 1.1 g | KIDNEY_TOTAL ([…], time 7 day): 2.2 g | KIDNEY_L ([…], time 14 day): 1.3 g | KIDNEY_R ([…], time 14 day): 1.3 g | KIDNEY_TOTAL ([…], time 14 day): 2.6 g | KIDNEY_L ([…], time 28 day): 1.3 g | KIDNEY_R ([…], time 28 day): 1.4 g | KIDNEY_TOTAL ([…], time 28 day): 2.7 g | LIVER ([…], time 7 day): 11.9 g | LIVER ([…], time 14 day): 13.5 g | LIVER ([…], time 28 day): 13.9 g | A/G ([…], time 7 day): 1.1 | ALP ([…], time 7 day): 1565.4 IU/L | ALT ([…], time 7 day): 39 IU/L | AST ([…], time 7 day): 68.2 IU/L | BUN ([…], time 7 day): 17.6 mg/dL | CRE ([…], time 7 day): 0.2 mg/dL | Ca ([…], time 7 day): 10.7 mg/dL | Cl ([…], time 7 day): 104.6 meq/L | DBIL ([…], time 7 day): 0 mg/dL | GLC ([…], time 7 day): 188.2 mg/dL | IP ([…], time 7 day): 6.9 mg/dL | K ([…], time 7 day): 4.7 meq/L | LDH ([…], time 7 day): 190.6 IU/L | Na ([…], time 7 day): 139.8 meq/L | PL ([…], time 7 day): 138.6 mg/dL | RALB ([…], time 7 day): 2.9 g/dL | TBIL ([…], time 7 day): 0.008 mg/dL | TC ([…], time 7 day): 71.2 mg/dL | TG ([…], time 7 day): 94.8 mg/dL | TP ([…], time 7 day): 5.5 g/dL | gamma-GTP ([…], time 7 day): 2.4 IU/L | A/G ([…], time 14 day): 1.1 | ALP ([…], time 14 day): 1268.2 IU/L | ALT ([…], time 14 day): 42 IU/L | AST ([…], time 14 day): 72.8 IU/L | BUN ([…], time 14 day): 18.4 mg/dL | CRE ([…], time 14 day): 0.2 mg/dL | Ca ([…], time 14 day): 10.9 mg/dL | Cl ([…], time 14 day): 106 meq/L | DBIL ([…], time 14 day): 0 mg/dL | GLC ([…], time 14 day): 183.8 mg/dL | IP ([…], time 14 day): 7.4 mg/dL | K ([…], time 14 day): 4.5 meq/L | LDH ([…], time 14 day): 176 IU/L | Na ([…], time 14 day): 143.8 meq/L | PL ([…], time 14 day): 139.2 mg/dL | RALB ([…], time 14 day): 3.1 g/dL | TBIL ([…], time 14 day): 0.004 mg/dL | TC ([…], time 14 day): 71.6 mg/dL | TG ([…], time 14 day): 97.8 mg/dL | TP ([…], time 14 day): 5.8 g/dL | gamma-GTP ([…], time 14 day): 2.4 IU/L | A/G ([…], time 28 day): 1.1 | ALP ([…], time 28 day): 1244.2 IU/L | ALT ([…], time 28 day): 39.2 IU/L | AST ([…], time 28 day): 67.8 IU/L | BUN ([…], time 28 day): 19.6 mg/dL | CRE ([…], time 28 day): 0.2 mg/dL | Ca ([…], time 28 day): 10.4 mg/dL | Cl ([…], time 28 day): 104.4 meq/L | DBIL ([…], time 28 day): 0 mg/dL | GLC ([…], time 28 day): 203.4 mg/dL | IP ([…], time 28 day): 6.4 mg/dL | K ([…], time 28 day): 4.2 meq/L | LDH ([…], time 28 day): 147 IU/L | Na ([…], time 28 day): 144.2 meq/L | PL ([…], time 28 day): 137 mg/dL | RALB ([…], time 28 day): 3.1 g/dL | TBIL ([…], time 28 day): 0.01 mg/dL | TC ([…], time 28 day): 66 mg/dL | TG ([…], time 28 day): 124.4 mg/dL | TP ([…], time 28 day): 6 g/dL | gamma-GTP ([…], time 28 day): 2.8 IU/L
